These results are taken from publication PMC6728138, “Quantitative mapping of protein-peptide affinity landscapes using spectrally encoded beads” (eLife, 2019).

For orientation: IC50 means the concentration needed to halve the response being measured.

Like-named read-outs stand apart in the source and are kept apart here. Ends that are not written are not given here.

The target of assay [1] is T1, calcineurin (CN) (Homo sapiens, UniProt Q08209).
T1 construct: human calcineurin A isoforms (truncated at residue 400); made in house; host or cells: E. coli BL21 (DE3)
Description: MRBLE-pep calcineurin binding assay (concentration-dependent). The method, then: MRBLEs were prepared by transferring a 20 μL aliquot from a 600 μL suspension (∼3000–8000 beads depending on pellet size) to a 100 μL PCR strip (20 μL for each CN concentration), exchanging buffer via 3 cycles of iterative pelleting, decanting, and resuspension with 0.1% PBST containing 5% BSA, pH = 7.5 (100 μL), and then left mixing at ∼5 °C on a rotator in the same wash buffer overnight (∼14 hr). MRBLEs were then buffer exchanged once again with CN binding buffer (50 mM Tris pH = 7.5, 150 mM NaCl, 0.1% TWEEN 20) via three iterative cycles of pelleting, decanting, and resuspension.
After incubation, MRBLEs were pelleted, decanted, and washed once with 0.1% PBST (100 μL). After a final round of pelleting and decanting, 20 μL of 0.1% PBST was added and the beads were transferred to a quartz microscope slide for imaging.
The affinity ( Kd ) for each peptide in a MBRLE library was determined via a two-step nonlinear regression using a single-site binding model:(1) Ii=(Imax[CNtotal])/(Kd,i+[CNtotal]) where Ii is the median measured fluorescence intensity for each peptide, Kd,i is the dissociation constant for that interaction, [ CNtotal ] is total CN concentration, and Imax is a global variable representing the fluorescence intensity once MRBLE-pep beads are saturated. First, we determined the global saturation value ( Imax ), by globally fitting the top 80% highest-intensity MRBLE codes. Next, we globally fit the entire data set using this Imax value to yield an estimated absolute affinity ( Kd ) for all peptides in the library. […] Differences in binding affinity were calculated relative to a reference peptide using the standard equation:(2) ΔΔG=RTln(Kd,i/Kd,ref)
Next, we used this reference value and calculated differences in binding affinity ( ΔΔG ) to estimate absolute Kd values for each peptide within the calibration and full calibration libraries (Figure 2—source data 1, Figure 2—source data 2, Figure 5—source data 1, Figure 5—source data 2, Figure 5—source data 3, Figure 5—source data 4).

Assay [2] has as its system NFAT-driven luciferase activity in HEK293T cells. Description: In vivo calcineurin activity assay (NFAT dual luciferase reporter). In kind it is cell-based. Conditions: initial in vivo experiment, FK506 1 μM. The text has this: To test the degree to which in vitro MRBLE-pep affinities predict in vivo inhibition, we used a previously developed dual luciferase reporter assay to assess the activity of the NFAT2 transcription factor in HEK293T cells (Figure 6A) ([Grigoriu et al., 2013]). NFAT2 must be dephosphorylated by CN to accumulate in the nucleus, where it activates transcription of its target genes, and this interaction can be inhibited by peptides or small molecules that binds to CN. Reduction of NFAT2-dependent transcriptional activity upon expression of a competing PxIxIT peptide therefore reflects, quantitatively, the affinity of the inhibitor peptide for CN. Candidate PxIxIT inhibitors were co-expressed as GFP-fusion proteins within cells to enhance their stability and facilitate direct measurement of inhibitor concentrations.
PxIxIT peptides were fused to eGFP in pEGFPc1 vector. HEK293T cells were transfected with pEGFPc1 clones, pNFAT-Luc and CMV-Renilla in a 6-well plate format. 18 hr post transfection, 1μM FK506 or DMSO (vehicle) was added to the media as needed. […] 6 hr after pathway activation, cells were collected, washed in PBS and re-suspended in DMEM media. 80% of the cells were used to measure luciferase activity and renilla using the Dual-Glo assay system (Promega) with three technical replicates. The remaining cells were frozen and stored at −80°C. Cell lysates were prepared in RIPA buffer. 15–20 μg of lysate was analyzed by Western for expression of GFP. GFP signal was normalized to either actin or tubulin. Luciferase activity (normalized to renilla expression) was further normalized to eGFP expression. Data represent at least three experimental replicates.
(In general: A reporter such as luciferase makes a cellular process visible.)

Assay [3] relates to CN. The note with it: ref Fruman et al., 1992; cited from earlier work. The text has this:
Consistent with MRBLE-pep measurements, ...

T1 sequence (Q08209 1-400 limits assumed): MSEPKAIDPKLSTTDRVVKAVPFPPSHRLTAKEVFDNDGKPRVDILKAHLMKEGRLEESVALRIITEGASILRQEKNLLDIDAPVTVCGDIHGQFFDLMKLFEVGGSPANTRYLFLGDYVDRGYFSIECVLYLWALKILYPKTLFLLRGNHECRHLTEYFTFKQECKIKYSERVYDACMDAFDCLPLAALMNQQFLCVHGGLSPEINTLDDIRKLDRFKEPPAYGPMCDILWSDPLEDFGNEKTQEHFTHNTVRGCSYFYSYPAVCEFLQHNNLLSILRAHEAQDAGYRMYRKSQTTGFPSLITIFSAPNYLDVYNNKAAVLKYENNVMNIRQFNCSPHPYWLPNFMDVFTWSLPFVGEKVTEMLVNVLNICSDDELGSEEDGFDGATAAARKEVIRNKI
T1 sequence (P63098 whole entry partner, the tested form may be a part, canonical isoform): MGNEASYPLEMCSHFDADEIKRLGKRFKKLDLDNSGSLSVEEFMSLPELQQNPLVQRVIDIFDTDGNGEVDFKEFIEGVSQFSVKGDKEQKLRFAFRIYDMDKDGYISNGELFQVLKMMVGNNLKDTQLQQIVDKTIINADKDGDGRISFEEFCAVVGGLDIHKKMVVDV

HPSIVITGPH-NH2: in assay [1] (kd, 'Triplicate high' library), the Kd came to 0.88 ± 0.26 µM.

For `C=CC[C@@H]1/C=C(\C)C[C@H](C)C[C@H](OC)[C@H]2O[C@@](O)(C(=O)C(=O)N3CCCC[C@H]3C(=O)O[C@H](/C(C)=C/[C@@H]3CC[C@@H](O)[C@H](OC)C3)[C@H](C)[C@@H](O)CC1=O)[C@H](C)C[C@@H]2OC` [FK506], the “NFAT-driven luciferase activity, normalized to renilla and eGFP expression, relative to empty vector (Data)” value in assay [2] (replicate 1) amounted to 0.09. In addition, the “NFAT-driven luciferase activity, normalized, relative to empty vector (Data)” value in assay [2] (replicate 2) is 0.08616; in assay [2] (replicate 3) it was 0.09188. Further, in assay [3], the IC50 is around 0.0005 µM.

Take HAVIVITGPH-NH2: in assay [1] (bold value over the codes, read-out: kd, 'Triplicate high' library), the Kd was 1.27 ± 0.13 µM.

Turning to HPVIVVTGPH-NH2, the Kd came out at 2 ± 0.4 µM in assay [1] (apparent Kd, 'Triplicate low' (Figure 2C, measure not given)) and 0.92 ± 0.25 µM in assay [1] (kd, 'Triplicate high' library).
